Laboratory results reported in ChEMBL document CHEMBL5241069, “A key review on oxadiazole analogs as potential methicillin-resistant Staphylococcus aureus (MRSA) activity: Structure-activity relationship studies” (Eur J Med Chem, 2021).
≈ marks a conversion by molar mass, not a printed value.

Columns and labels:
[1] = system: Staphylococcus aureus; experiment: Antibacterial activity against methicillin resistant Staphylococcus aureus assessed as inhibition of bacterial growth by broth dilution technique; format: functional
[2] = system: Staphylococcus aureus; experiment: Antibacterial activity against methicillin resistant Staphylococcus aureus assessed as inhibition zone by disc diffusion method; format: functional
[3] = system: Staphylococcus aureus; experiment: Antibiofilm activity against methicillin resistant Staphylococcus aureus ATCC 43866 assessed as inhibition of biofilm formation incubated for 18 to 24 hrs by tissue culture plate method; format: functional; conditions: time 18-24 hrs
[4] = system: Staphylococcus aureus; experiment: Antibacterial activity against methicillin resistant Staphylococcus aureus 128 assessed as inhibition of bacterial growth; format: functional
[5] = system: Staphylococcus aureus; experiment: Antibacterial activity against methicillin resistant Staphylococcus aureus 42 assessed as inhibition of bacterial growth; format: functional
[6] = system: Staphylococcus aureus; experiment: Antibacterial activity against methicillin resistant Staphylococcus aureus 747 assessed as inhibition of bacterial growth; format: functional
[7] = system: Staphylococcus aureus; experiment: Antibacterial activity against methicillin resistant Staphylococcus aureus 181 assessed as inhibition of bacterial growth; format: functional
[8] = system: Staphylococcus aureus; experiment: Antibacterial activity against methicillin resistant Staphylococcus aureus ATCC 43300 assessed as inhibition of bacterial growth incubated for 24 to 48 hrs by spectrophotometric analysis; format: functional; conditions: time 24-48 hrs
[9] = system: Staphylococcus aureus; experiment: Antibacterial activity methicillin resistant Staphylococcus aureus 2658 RCMB assessed as inhibition of bacterial growth by broth microdilution method; format: functional
[10] = system: Staphylococcus aureus; experiment: microbe, parasite or virus in culture; conditions: 032
Description: Antibacterial activity against methicillin resistant Staphylococcus aureus 032 assessed as inhibition of bacterial growth by CLSI protocol based serial dilution method

[11] = system: Staphylococcus aureus; experiment: Antimicrobial activity against methicillin resistant Staphylococcus aureus 2 assessed as inhibition of bacterial growth incubated for 16 to 20 hrs by CLSI protocol based Muller-Hinton broth method; format: functional; conditions: time 16-20 hrs
[12] = system: Staphylococcus aureus; experiment: Antimicrobial activity against methicillin resistant Staphylococcus aureus 3 assessed as inhibition of bacterial growth incubated for 16 to 20 hrs by CLSI protocol based Muller-Hinton broth method; format: functional; conditions: time 16-20 hrs
[13] = system: Staphylococcus aureus; experiment: Antimicrobial activity against methicillin resistant Staphylococcus aureus 1 assessed as inhibition of bacterial growth incubated for 16 to 20 hrs by CLSI protocol based Muller-Hinton broth method; format: functional; conditions: time 16-20 hrs
[14] = system: Staphylococcus aureus; experiment: Antimicrobial activity against methicillin resistant Staphylococcus aureus 2658 RCMB assessed as inhibition of bacterial growth incubated for 20 hrs by CLSI protocol based broth microdilution method; format: functional

Compound: CCCC(O)C/C=C/CCCCCCc1nnc(-c2ccccc2Cl)o1 (configuration not stated)
- MIC [1]: 12.5 µg/mL (≈ 33.2 µM)
- inhibition zone (IZ) [2]: 19.5 mm

Compound: C=CCCCCCCCc1nnc(-c2ccco2)o1
- MIC [1]: 12.5 µg/mL (≈ 48 µM)
- inhibition zone (IZ) [2]: 11.1 mm

Compound: Cn1c(-c2nnc(-c3ccc(N)cc3)o2)cc(Br)c1Br
- MIC [3]: 1.56 µg/mL (≈ 3.92 µM)

Compound: O=c1c(Br)cnc2onc(-c3ccc(Cl)cc3)n12
- MIC [4]: 96.3 µg/mL (≈ 295 µM)
- MIC [5]: 96.4 µg/mL (≈ 295 µM)
- MIC [6]: 59.4 µg/mL (≈ 182 µM)
- MIC [7]: 53.6 µg/mL (≈ 164 µM)

Compound: O=c1c(F)cnc2onc(-c3ccc(Cl)cc3)n12
- MIC [4]: ≥ 125 µg/mL
- MIC [5]: 111 µg/mL (≈ 416 µM)
- MIC [6]: ≥ 125 µg/mL
- MIC [7]: ≥ 125 µg/mL

Compound: O=C(N[C@H](CO)[C@H](O)c1ccc([N+](=O)[O-])cc1)C(Cl)Cl [CHLORAMPHENICOL]
- MIC [8]: 50 µg/mL (≈ 155 µM)

Compound: Cc1nc(-c2ccc(C(C)(C)C)cc2)sc1-c1nnc(NC(=N)c2cccnc2)o1
- MIC [9]: > 50 µg/mL

Compound: COc1ccc(-c2nnc(-c3cc(Br)c(Br)n3C)o2)cc1
- MIC [3]: 1.56 µg/mL (≈ 3.78 µM)

Compound: O=c1c(Br)cnc2onc(-c3ccc(Br)cc3)n12
- MIC [4]: 120 µg/mL (≈ 325 µM)
- MIC [5]: 114 µg/mL (≈ 306 µM)
- MIC [6]: ≥ 125 µg/mL
- MIC [7]: ≥ 125 µg/mL

Compound: Cc1nc(/C(=C\c2coc3cc(C)c(Cl)cc3c2=O)c2ccc([N+](=O)[O-])cc2)no1
- MIC [10]: 16 µg/mL (≈ 37.8 µM)

Compound: CCn1cc(C(=O)O)c(=O)c2cc(F)c(N3CCN(Cc4nnc(-c5ccccc5C)o4)CC3)cc21
- MIC [11]: 0.5 µg/mL (≈ 1.02 µM)
- MIC [12]: 2 µg/mL (≈ 4.07 µM)
- MIC [13]: 1 µg/mL (≈ 2.03 µM)

Compound: CCCCCCCCCCCCCCc1nnc(-c2ccccc2Cl)o1
- MIC [1]: 12.5 µg/mL (≈ 33.2 µM)
- inhibition zone (IZ) [2]: 12.1 mm

Compound: Cc1nc(/C(=C\c2coc3c(Cl)cc(Cl)cc3c2=O)c2ccc([N+](=O)[O-])cc2)no1
- MIC [10]: 32 µg/mL (≈ 72 µM)

Compound: Cc1nc(-c2ccc(C(C)(C)C)cc2)sc1-c1nnc(NC(=N)N2CCOCC2)o1
- MIC [9]: 25 µg/mL (≈ 58.6 µM)

Compound: Cn1c(-c2nnc(-c3ccc([N+](=O)[O-])cc3)o2)cc(Br)c1Br
- MIC [3]: 3.12 µg/mL (≈ 7.3 µM)

Compound: Cc1nc(-c2ccc(C(C)(C)C)cc2)sc1-c1nnc(NC(=N)N)o1
- MIC [9]: 6.25 µg/mL (≈ 17.5 µM)

Compound: Cc1nc(-c2ccc3ccccc3c2)sc1-c1nnc(NC(=N)N2CCNCC2)o1
- MIC [14]: 1.95 µg/mL (≈ 4.65 µM)

Compound: CNC(=N)Nc1nnc(-c2sc(-c3ccc4ccccc4c3)nc2C)o1
- MIC [14]: 3.9 µg/mL (≈ 10.7 µM)

Compound: CCCCCCCCCCCCCCc1nnc(-c2ccco2)o1
- MIC [1]: 12.5 µg/mL (≈ 37.6 µM)
- inhibition zone (IZ) [2]: 15.5 mm

Compound: CCn1cc(C(=O)O)c(=O)c2cc(F)c(N3CCN(Cc4nnc(-c5ccccc5Cl)o4)CC3)cc21
- MIC [11]: 1 µg/mL (≈ 1.95 µM)
- MIC [12]: 1 µg/mL (≈ 1.95 µM)
- MIC [13]: 0.5 µg/mL (≈ 0.977 µM)

Compound: Cc1nc(/C(=C\c2coc3ccccc3c2=O)c2ccc([N+](=O)[O-])cc2)no1
- MIC [10]: > 32 µg/mL

Compound: CC[C@H]1OC(=O)[C@H](C)[C@@H](O[C@H]2C[C@@](C)(OC)[C@@H](O)[C@H](C)O2)[C@H](C)[C@@H](O[C@@H]2O[C@H](C)C[C@H](N(C)C)[C@H]2O)[C@](C)(O)C[C@@H](C)C(=O)[C@H](C)[C@@H](O)[C@]1(C)O [ERYTHROMYCIN]
- MIC [10]: > 32 µg/mL

Compound: Cc1nc(-c2ccc(C(C)(C)C)cc2)sc1-c1nnc(NC(=N)N2CCN(C)CC2)o1
- MIC [9]: 25 µg/mL (≈ 56.9 µM)

Compound: Cc1nc(-c2ccc3ccccc3c2)sc1-c1nnc(NN)o1
- MIC [14]: 3.9 µg/mL (≈ 12.1 µM)

Compound: C=Cc1ccc(Oc2nnc(-c3cc(Br)c(Br)n3C)o2)c(OC)c1
- MIC [3]: 25 µg/mL (≈ 54.9 µM)

Compound: O=c1c(Br)cnc2onc(-c3c(F)cccc3F)n12
- MIC [4]: 32.4 µg/mL (≈ 98.8 µM)
- MIC [5]: 15.8 µg/mL (≈ 48.2 µM)
- MIC [6]: 40.2 µg/mL (≈ 123 µM)
- MIC [7]: 40.2 µg/mL (≈ 123 µM)

Compound: O=c1c(F)cnc2onc(-c3ccccc3Cl)n12
- MIC [4]: ≥ 125 µg/mL
- MIC [5]: ≥ 125 µg/mL
- MIC [6]: ≥ 125 µg/mL
- MIC [7]: ≥ 125 µg/mL

Compound: Cn1c(-c2nnc(-c3ccccc3)o2)cc(Br)c1Br
- MIC [3]: 6.25 µg/mL (≈ 16.3 µM)

Compound: Cn1c(-c2nnc(-c3ccc(Cl)cc3)o2)cc(Br)c1Br
- MIC [3]: 1.56 µg/mL (≈ 3.74 µM)

Compound: Cc1cc(C)c2occ(/C=C(/c3ccc([N+](=O)[O-])cc3)c3noc(C)n3)c(=O)c2c1
- MIC [10]: > 32 µg/mL

Compound: Cc1nc(-c2ccc(C(C)(C)C)cc2)sc1-c1nnc(NC(=N)c2ccccn2)o1
- MIC [9]: > 50 µg/mL

Compound: CCCCC/C=C/CCC(O)CCCCCCc1nnc(-c2ccccc2Cl)o1 (configuration not stated)
- MIC [1]: 12.5 µg/mL (≈ 29.8 µM)
- inhibition zone (IZ) [2]: 19.7 mm

Compound: Cc1nc(/C(=C\c2coc3ccc(Br)cc3c2=O)c2ccc([N+](=O)[O-])cc2)no1
- MIC [10]: > 32 µg/mL

Compound: O=c1c(Br)cnc2onc(-c3cccc(F)c3F)n12
- MIC [4]: 37.8 µg/mL (≈ 115 µM)
- MIC [5]: 20.8 µg/mL (≈ 63.4 µM)
- MIC [6]: 42.1 µg/mL (≈ 128 µM)
- MIC [7]: 42.1 µg/mL (≈ 128 µM)

Compound: CN[C@H](CC(C)C)C(=O)N[C@H]1C(=O)N[C@@H](CC(N)=O)C(=O)N[C@H]2C(=O)N[C@H]3C(=O)N[C@H](C(=O)N[C@H](C(=O)O)c4cc(O)cc(O)c4-c4cc3ccc4O)[C@H](O)c3ccc(c(Cl)c3)Oc3cc2cc(c3O[C@@H]2O[C@H](CO)[C@@H](O)[C@H](O)[C@H]2O[C@H]2C[C@](C)(N)[C@H](O)[C@H](C)O2)Oc2ccc(cc2Cl)[C@H]1O [VANCOMYCIN]
- MIC [4]: 20.7 µg/mL (≈ 14.3 µM)
- MIC [5]: 13.1 µg/mL (≈ 9.04 µM)
- MIC [3]: 6.25 µg/mL (≈ 4.31 µM)
- MIC [6]: 21.6 µg/mL (≈ 14.9 µM)
- MIC [14]: 1.95 µg/mL (≈ 1.35 µM)
- MIC [7]: 20.3 µg/mL (≈ 14 µM)
